Assay results taken from patent publication US7932284B2, “Indole sulfonamide modulators of progesterone receptors” (Eli Lilly and Company, priority 2006, dated 2011).

What was measured:
[1] = target: T1, human PR (progesterone receptor) (Homo sapiens, UniProt P06401); assay: PR competition binding assay (HEK293 cell lysate); conditions: 0.29 nM 3H-methyltrienolone, 293-PR lysate
T1 construct: expressed in transfected cells; host or cells: HEK293
T1 sequence (P06401 1-933): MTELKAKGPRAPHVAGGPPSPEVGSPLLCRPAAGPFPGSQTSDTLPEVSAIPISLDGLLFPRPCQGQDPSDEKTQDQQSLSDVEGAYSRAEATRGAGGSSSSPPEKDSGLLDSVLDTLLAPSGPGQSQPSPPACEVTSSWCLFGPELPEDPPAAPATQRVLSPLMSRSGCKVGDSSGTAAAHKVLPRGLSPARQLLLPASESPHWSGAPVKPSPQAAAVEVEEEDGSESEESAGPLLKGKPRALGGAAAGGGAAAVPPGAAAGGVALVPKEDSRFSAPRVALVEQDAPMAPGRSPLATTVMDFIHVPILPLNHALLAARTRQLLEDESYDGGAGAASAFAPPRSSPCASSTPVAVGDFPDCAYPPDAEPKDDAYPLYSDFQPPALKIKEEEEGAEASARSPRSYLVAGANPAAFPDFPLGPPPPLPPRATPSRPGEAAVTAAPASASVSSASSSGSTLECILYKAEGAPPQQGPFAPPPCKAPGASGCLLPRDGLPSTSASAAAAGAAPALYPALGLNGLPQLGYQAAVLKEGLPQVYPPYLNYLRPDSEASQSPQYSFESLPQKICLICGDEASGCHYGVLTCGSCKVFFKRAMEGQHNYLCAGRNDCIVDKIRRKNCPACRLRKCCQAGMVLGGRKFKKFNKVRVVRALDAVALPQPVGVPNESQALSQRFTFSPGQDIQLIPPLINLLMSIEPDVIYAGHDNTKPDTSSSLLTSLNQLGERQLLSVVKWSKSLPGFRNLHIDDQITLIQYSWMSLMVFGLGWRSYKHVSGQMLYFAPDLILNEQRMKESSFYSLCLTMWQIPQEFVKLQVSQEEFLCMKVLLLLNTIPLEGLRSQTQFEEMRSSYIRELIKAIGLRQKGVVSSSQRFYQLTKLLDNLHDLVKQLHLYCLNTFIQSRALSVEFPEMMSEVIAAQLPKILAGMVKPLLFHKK
Method: (§1) Cell lysates from HEK293 cells overexpressing human GR (glucocorticoid receptor), AR (androgen receptor), MR (mineralocorticoid receptor) or PR (progesterone receptor) are used for competition binding assays to determine Ki values for compounds of interest. Briefly, competition binding assays are run in a buffer containing 20 mM HEPES, pH 7.6, 0.2 mM EDTA, 75 mM NaCl, 1.5 mM MgCl2, 20% glycerol, 20 mM sodium molybdate, 0.2 mM DTT, 20 ug/ml aprotinin, and 20 ug/ml leupeptin, using either 0.3 nM ^3H-dexamethasone for GR binding, 0.36 nM ^3H-methyltrienolone for AR binding, 0.25 nM ^3H-aldosterone for MR binding, or 0.29 nM ^3H-methyltrienolone for PR binding, and either 20 ug 293-GR lysate, 22 ug 293-AR lysate, 20 ug 293-MR lysate or 40 ug 293-PR lysate per well. Competing compounds are added at various concentrations in half-log increments. Non-specific binding is determined in the presence of 500 nM dexamethasone for GR binding, 500 nM aldosterone for MR binding, or 500 nM methyltrienolone for AR and PR binding. The binding reaction (140 μl) is incubated overnight at 4° C., then 70 μl of cold charcoal-dextran buffer (containing per 50 ml of assay buffer, 0.75 g of charcoal and 0.25 g of dextran) is added to each reaction. Plates are mixed 8 minutes on an orbital shaker at 4° C. Plates are then centrifuged at 3,000 rpm at 4° C. for 10 minutes. An aliquot of 120 μl of the mixture is transferred to another 96-well plate and 175 μl of Wallac Optiphase “Hisafe 3” scintillation fluid is added to each well. Plates are sealed and shaken vigorously on an orbital shaker. After an incubation of 2 hrs, plates are read in a Wallac Microbeta counter. […] The Kd for ^3H-dexamethasone for GR binding, ^3H-methyltrienolone for AR binding, ^3H-aldosterone for MR binding, or ^3H-methyltrienolone for PR binding, is determined by saturation binding. The IC50 values for compounds are converted to Ki using Cheng-Prusoff equation and the Kd determined by saturation binding assay.
More preferably the compounds of the present invention have PR binding value K; of <10 nM.

[2] = target: T2, human MR (mineralocorticoid receptor) (Homo sapiens, UniProt P08235); assay: MR competition binding assay (HEK293 cell lysate); conditions: 0.25 nM 3H-aldosterone, 293-MR lysate
T2 construct: expressed in transfected cells; host or cells: HEK293
T2 sequence (P08235 1-984): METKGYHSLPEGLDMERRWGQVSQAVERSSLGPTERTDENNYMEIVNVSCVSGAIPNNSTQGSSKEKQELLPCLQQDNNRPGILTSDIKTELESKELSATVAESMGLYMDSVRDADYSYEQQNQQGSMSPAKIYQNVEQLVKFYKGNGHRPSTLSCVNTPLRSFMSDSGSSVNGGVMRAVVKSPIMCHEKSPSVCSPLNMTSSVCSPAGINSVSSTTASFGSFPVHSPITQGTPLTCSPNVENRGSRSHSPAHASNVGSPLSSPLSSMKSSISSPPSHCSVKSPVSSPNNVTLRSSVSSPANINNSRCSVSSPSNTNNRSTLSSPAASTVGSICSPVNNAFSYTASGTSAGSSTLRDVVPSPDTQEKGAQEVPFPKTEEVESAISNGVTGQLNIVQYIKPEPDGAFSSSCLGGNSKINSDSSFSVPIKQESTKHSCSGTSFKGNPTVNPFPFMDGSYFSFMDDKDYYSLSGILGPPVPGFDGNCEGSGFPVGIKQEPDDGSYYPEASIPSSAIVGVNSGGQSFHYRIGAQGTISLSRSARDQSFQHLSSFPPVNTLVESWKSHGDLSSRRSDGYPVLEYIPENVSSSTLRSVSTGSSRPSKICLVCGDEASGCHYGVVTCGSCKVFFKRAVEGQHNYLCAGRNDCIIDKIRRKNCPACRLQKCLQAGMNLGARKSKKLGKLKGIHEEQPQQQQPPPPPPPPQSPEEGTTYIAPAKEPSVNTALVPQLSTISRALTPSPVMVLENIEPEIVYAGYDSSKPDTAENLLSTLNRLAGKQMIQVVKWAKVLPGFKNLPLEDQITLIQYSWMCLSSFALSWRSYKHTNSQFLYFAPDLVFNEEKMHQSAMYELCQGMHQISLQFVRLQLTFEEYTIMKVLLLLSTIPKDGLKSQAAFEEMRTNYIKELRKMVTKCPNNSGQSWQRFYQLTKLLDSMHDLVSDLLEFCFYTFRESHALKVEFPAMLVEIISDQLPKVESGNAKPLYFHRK
Method: as §1

SMILES	Ki [1] [µM]	Ki [2] [µM]
CC(C)n1cc(-c2ccc3oc(=O)ccc3c2)c2ccc(NS(C)(=O)=O)cc21 [Example 96, N-[1-Isopropyl-3-(2-oxo-2H-chromen-6-yl)-1H-indol-6-yl]-methanesulfonamide]	< 0.05	> 1
CC(C)n1cc(-c2ccc3c(c2)COC3=O)c2ccc(NS(C)(=O)=O)cc21 [Example 97, N-[1-Isopropyl-3-(1-oxo-1,3-dihydro-isobenzofuran-5-yl)-1H-indol-6-yl]-methanesulfonamide]	< 0.05	> 1
CC(C)n1cc(-c2ccc(C#N)cc2)c2ccc(NS(=O)(=O)C(F)(F)F)cc21 [Example 98, N-[3-(4-Cyano-phenyl)-1-isopropyl-1H-indol-6-yl]-C,C,C-trifluoro-methanesulfonamide]	< 0.05	> 1

Results, then the molecule that gave them:

Ki [1] [µM]	Ki [2] [µM]	SMILES
0.05 to 0.1	> 1	CC(C)n1cc(-c2ccc(C#N)cc2)c2ccc(NS(=O)(=O)N3CCOCC3)cc21 [Example 100, Morpholine-4-sulfonic acid [3-(4-cyano-phenyl)-1-isopropyl-1H-indol-6-yl]-amide]
0.05 to 0.1	> 1	CC(C)n1cc(-c2ccc3c(cnn3C)c2)c2ccc(NS(C)(=O)=O)cc21 [Example 107, N-[1-Isopropyl-3-(1-methyl-1H-indazol-5-yl)-1H-indol-6-yl]-methanesulfonamide]
